Test systems include DMS-114; DMS-273; HOP-18; KM-20L2; LXFL 529; M19-MEL; RXF 631; SNB-78; XF498.
Holding throughout (assay): NCI tumour cell line growth inhibition, 48 h

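Following 48 hours of exposure in 96-well plates, responses at five concentrations were used to interpolate endpoints linearly. At the GI50, growth is halved.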 Activity calls are given as the source filed them. Cut-off read from the data, not from the text of the source: active = GI50 up to about 1.1 µM and inactive = higher.

`CC(=O)n1cc(CC(C)O)c(=O)[nH]c1=O` (stereo not drawn): the GI50 with DMS-114, in the experiment with DMS-273, in the experiment with HOP-18, with KM-20L2, with LXFL 529 and with M19-MEL was > 100 µM (inactive) each time. Also, the GI50 with RXF 631, with SNB-78 and with XF498 was > 100 µM (inactive) in each case.

Consider `O=C(O)C(CS)Nc1c2ccccc2nc2ccccc12` (stereo not drawn), for which the GI50 with DMS-114 is 27.7 µM (inactive); with DMS-273, 34.6 µM (inactive); in the experiment on KM-20L2, 49.8 µM (inactive); with LXFL 529, > 100 µM (inactive); with M19-MEL, 57 µM (inactive); with XF498, 24.9 µM (inactive).

As to `CC(C)(C)C(=O)/C=C/c1ccc(Oc2ccccc2)cc1`, the GI50 in the experiment with HOP-18 was 19.3 µM (inactive); with KM-20L2 it was 17.2 µM (inactive); in the experiment on LXFL 529, 13.2 µM (inactive); in the experiment on M19-MEL, 23.5 µM (inactive); with SNB-78 it was 25.5 µM (inactive); with XF498, 15.2 µM (inactive).

`CC1=C(C(=O)NCc2ccccc2)C(c2ccccc2[N+](=O)[O-])C(C(=O)NCc2ccccc2)=C(C)N1`: the GI50 with DMS-114 was 12 µM (inactive); in the experiment on DMS-273 it was 10.6 µM (inactive); in the experiment on HOP-18 it was 20.3 µM (inactive); with KM-20L2, 16.5 µM (inactive); in the experiment with LXFL 529, 10.7 µM (inactive); in the experiment with M19-MEL, 11.4 µM (inactive). Besides, the values for the GI50 with RXF 631, in the experiment with SNB-78 and with XF498 were 15.4 µM (inactive), 11.8 µM (inactive) and 18 µM (inactive), respectively.

Take `CC(C)=CCCC1(C)C=Cc2c(c(C)cc3c2[nH]c2cc(O)ccc23)O1` (stereo not drawn): the GI50 in the experiment on DMS-114 was > 25 µM (inactive); in the experiment on DMS-273 it was > 25 µM (inactive); in the experiment on HOP-18, 7.36 µM (inactive); with KM-20L2, > 25 µM (inactive); with LXFL 529, > 25 µM (inactive); in the experiment on M19-MEL, > 25 µM (inactive). Further, the GI50 in the experiment on XF498 was > 25 µM (inactive).

For `COc1ccc(Br)c(C(=O)N2CCc3ccccc32)c1N`, the GI50 with DMS-114 is 30.4 µM (inactive); with DMS-273, 15.7 µM (inactive); in the experiment on HOP-18, 47.9 µM (inactive); in the experiment with KM-20L2 it was 69.5 µM (inactive); in the experiment with LXFL 529 it was 59.8 µM (inactive); in the experiment with M19-MEL it was 45.6 µM (inactive). For the same compound, the figures for the GI50 in the experiment on SNB-78 and with XF498 were > 100 µM (inactive) and 31.9 µM (inactive), respectively.

Regarding `CC(C)(C)c1ccc2c(c1)S(=O)(=O)Nc1cccc(c1)NS(=O)(=O)c1cc(C(C)(C)C)ccc1OCCOCCO2`, the GI50 with DMS-114, in the experiment on DMS-273, with HOP-18, with M19-MEL, in the experiment with RXF 631 and with SNB-78 was > 100 µM (inactive) throughout.

As to `Cn1c(=O)c2nc3sc4ccccc4c(=N)n3c2n(C)c1=O`, the GI50 in the experiment with DMS-114, with DMS-273, in the experiment on HOP-18, in the experiment with LXFL 529, in the experiment with M19-MEL and in the experiment on RXF 631 was > 100 µM (inactive) each time. Also, the GI50 in the experiment with SNB-78 and in the experiment on XF498 was > 100 µM (inactive) each time.

On to `O=P1(O)c2ccccc2Nc2cc(C(F)(F)F)ccc21`, for which the GI50 in the experiment with DMS-114, in the experiment with DMS-273, in the experiment with HOP-18, in the experiment with KM-20L2, with LXFL 529 and in the experiment with M19-MEL was > 100 µM (inactive) each time. The GI50 in the experiment with SNB-78 and in the experiment with XF498 was > 100 µM (inactive) each time.

`C[N+]1(C)C/C(=C/c2ccc(F)cc2)C(=O)/C(=C\c2ccc(F)cc2)C1`: the GI50 in the experiment on DMS-114 is 22.8 µM (inactive); in the experiment on DMS-273, 30.6 µM (inactive); in the experiment with HOP-18, > 100 µM (inactive); in the experiment on KM-20L2 it was > 100 µM (inactive); in the experiment with LXFL 529 it was 38.9 µM (inactive); in the experiment on M19-MEL, 36.1 µM (inactive). Moreover, the GI50 with RXF 631 and in the experiment on SNB-78 was > 100 µM (inactive) throughout.

Turning to `CC#CCC1CCC(OCC)=CC1=O` (stereo not drawn), the GI50 in the experiment on DMS-114, in the experiment on DMS-273, with HOP-18, in the experiment with KM-20L2, in the experiment with LXFL 529 and in the experiment with M19-MEL was > 100 µM (inactive) throughout. The GI50 in the experiment with RXF 631, in the experiment with SNB-78 and in the experiment on XF498 was > 100 µM (inactive) each time.

Consider `c1ccc2c(c1)C1=NCCN1c1ccccc1-2`, for which the GI50 in the experiment with DMS-273 is 1.74 µM (inactive); in the experiment with HOP-18 it was 2.59 µM (inactive); in the experiment on KM-20L2, 2.92 µM (inactive); in the experiment with LXFL 529 it was 3.06 µM (inactive); with M19-MEL, 3.44 µM (inactive); with RXF 631, 2.77 µM (inactive). Also, the GI50 with SNB-78 was 4 µM (inactive).

With `O=C1CCCC(O)=C1SC1=C(O)CCCC1=O`, the GI50 in the experiment on DMS-273, in the experiment with HOP-18, in the experiment on M19-MEL, with RXF 631 and with SNB-78 was > 100 µM (inactive) in each case.

With `COc1ccc2c3ccc4c(c3n(C)c2c1)C(=O)C=CC4=O`, the GI50 with DMS-273 is 34.7 µM (inactive); with HOP-18, 36.7 µM (inactive); in the experiment with KM-20L2, > 100 µM (inactive); with LXFL 529 it was 15.2 µM (inactive); in the experiment on M19-MEL, 18.3 µM (inactive); in the experiment on SNB-78, 69.2 µM (inactive). In addition, in the experiment with XF498, the GI50 was 24.4 µM (inactive).

Consider `CCOC(=O)C(C)(C)Oc1ccc(/C=C/C(=O)c2ccc(Cl)cc2)cc1`, for which the GI50 in the experiment with DMS-114 is 17.4 µM (inactive); in the experiment with DMS-273 it was 16.7 µM (inactive); with KM-20L2, 17.8 µM (inactive); with LXFL 529, 15.8 µM (inactive); in the experiment with M19-MEL it was 20 µM (inactive); in the experiment with RXF 631 it was 19.5 µM (inactive). For the same compound, the GI50 in the experiment with XF498 was 18.8 µM (inactive).

Take `OC1OC2COC(c3ccccc3)OC2C(O)C1O` (stereo not drawn): the GI50 in the experiment on DMS-114, in the experiment with DMS-273, with HOP-18, in the experiment on KM-20L2, in the experiment with LXFL 529 and with M19-MEL was > 100 µM (inactive) each time. Further, the GI50 with SNB-78 and with XF498 was > 100 µM (inactive) in each case.

For the compound `O=[N+]([O-])c1cccc(-c2oc(/C=N/c3ccccc3)c([N+](=O)[O-])c2-c2cccc([N+](=O)[O-])c2)c1`, the GI50 in the experiment on DMS-114, in the experiment with DMS-273, in the experiment on KM-20L2, in the experiment with LXFL 529, with M19-MEL and in the experiment on RXF 631 was > 100 µM (inactive) each time. Further, the GI50 with SNB-78 was > 100 µM (inactive).

With `O=C(/C=C/c1ccccc1O)C(c1ccccc1)c1ccccc1`, the GI50 in the experiment with DMS-114 is 63.2 µM (inactive); in the experiment on DMS-273, > 100 µM (inactive); in the experiment with HOP-18 it was > 100 µM (inactive); with KM-20L2, > 100 µM (inactive); in the experiment with LXFL 529 it was > 100 µM (inactive); in the experiment with M19-MEL, > 100 µM (inactive). Besides, the GI50 in the experiment with RXF 631, in the experiment on SNB-78 and in the experiment on XF498 was > 100 µM (inactive) in each case.

In the case of `CS(=O)(=O)C1S(=O)(=O)OCCOS1(=O)=O`, the GI50 is > 100 µM (inactive) with DMS-114; > 100 µM (inactive) in the experiment on DMS-273; 73.6 µM (inactive) in the experiment on HOP-18; > 100 µM (inactive) with KM-20L2; > 100 µM (inactive) in the experiment on LXFL 529; > 100 µM (inactive) in the experiment with M19-MEL. The GI50 in the experiment on RXF 631, in the experiment with SNB-78 and in the experiment on XF498 was > 100 µM (inactive) in each case.

Take `Ic1ncnc2c1ncn2C1CCCO1` (stereo not drawn): the GI50 with DMS-114, in the experiment on DMS-273, with HOP-18, in the experiment with KM-20L2, in the experiment on M19-MEL and with SNB-78 was > 100 µM (inactive) in each case. The GI50 in the experiment on XF498 was > 100 µM (inactive).

With `COc1cc(C2c3cc4c(cc3[C@@H](Nc3ccc(C#N)cc3)C3COC(=O)[C@H]23)OCO4)cc(OC)c1O` (stereo partly drawn), the GI50 was 0.977 µM (active) in the experiment with DMS-114; 1.16 µM (inactive) in the experiment with HOP-18; 2.33 µM (inactive) with KM-20L2; 3.03 µM (inactive) in the experiment on SNB-78; 3.2 µM (inactive) in the experiment with XF498.

Consider `COc1ccc2c(c1)CCc1c(C(C)=O)c3ccccc3n1C2`, for which the GI50 in the experiment with DMS-114 is 31.7 µM (inactive); with DMS-273, 33 µM (inactive); in the experiment with HOP-18 it was 58.6 µM (inactive); in the experiment with LXFL 529, 12.1 µM (inactive); in the experiment on M19-MEL, 57.5 µM (inactive); in the experiment with RXF 631, 42.1 µM (inactive). Also, the values for the GI50 in the experiment on SNB-78 and in the experiment with XF498 were 52 µM (inactive) and 12.9 µM (inactive), respectively.

Take `C#CCn1c(=O)[nH]c(=O)c2cccnc21`: the GI50 with DMS-114 was > 10 µM (inactive); in the experiment with DMS-273, > 100 µM (inactive); in the experiment on HOP-18, 63.5 µM (inactive); in the experiment on KM-20L2, > 100 µM (inactive); in the experiment with LXFL 529 it was > 100 µM (inactive); in the experiment with RXF 631 it was > 100 µM (inactive). The GI50 in the experiment on SNB-78 and in the experiment with XF498 was > 100 µM (inactive) throughout.

With `COc1ccc(S(=O)(=O)N/N=C/C(=O)O)cc1`, the GI50 in the experiment on DMS-114 is 490 µM (inactive); with DMS-273 it was 518 µM (inactive); in the experiment on HOP-18, > 1060 µM (inactive); with KM-20L2, > 1190 µM (inactive); in the experiment with M19-MEL it was 955 µM (inactive); in the experiment on SNB-78 it was 830 µM (inactive). Also, in the experiment with XF498, the GI50 is 8.09 µM (inactive).

Source of the values: ChEMBL document CHEMBL1201862, “PubChem BioAssay data set” (2004).
